According to patent US20100016731A1, “Hemodynamic Detection of Circulatory Anomalies” (Cardiox Corporation, priority 2008, published 2010):
Structures can show the parent of a compound that is named as a salt.

Assays:
[1] = Excitation and fluorescence wavelengths and signal attenuation versus tissue depth of fluorescing dyes (FIG. 2); format: physicochemical
Text: These fluorescing dyes are excited by one wavelength of electromagnetic radiation, and emit a detectable signal at a second wavelength. Looking to FIG. 2, the excitation signal for fluorescein dye is represented at curve 30 which is an excitation signal at less than about 500 nanometers (nm). A resultant fluorescence emission from the excitation at 30 is shown at curve 32, at a wavelength of about 525 nm.
Looking to the indocyanine green dye spectrum, an excitation curve is shown at 34, having a peak excitation wavelength at about 785 nanometers. Correspondingly, the fluorescence emission from excitation at curve 34 is represented at curve 36 with a peak emission wavelength of about 830 nanometers. Directed across FIG. 2 is a curve representing the level of constant signal attenuation or absorption of about 37% resulting from passage of signal through tissue. That curve is represented at 38. Note that if a blood vessel is about one millimeter beneath the surface of skin the system would perform at about 37% of the original intensity of the excitation signal and fluorescence signal for the case of indocyanine green dye indicator. In contrast, a 37% decrease in excitation and emission signal level would result for the fluorescein dye indicator at a tissue thickness of only 0.25 mm. Since blood vessel being targeted is at least 1 mm below skin surface, the attenuation and associated signal loss would be much larger. Therefore, indocyanine green dye is preferred.
Turning again to the indocyanine green dye spectrum, note that the excitation signal 34 for ICG intersects curve 38 at a depth allowing for readily reaching blood vessels, for example within the pinna of the ear. Accordingly, indocyanine green is compatible with use as a circulatory tracking agent when detecting through skin, and indocyanine green was the indicator elected for subsequent study.

[2] = 1 day
Text: However, due to the ratiometric form of Eq. 7 in the present invention, the terms D and CCF cancel out. Also, the units of measure for the fluorescence signal level (e.g., millivolts-seconds) cancel out. […] However, the amount of the indicator injected needs to be sufficiently large so that the much smaller indicator/dilution curves associated with one or two right-to-left shunts can be adequately resolved and their corresponding areas can be accurately calculated. In a preferred embodiment of the present invention involving the use of Indocyanine Green (ICG) dye (supplied, for example, by Akorn, Inc., 2500 Millbrook Drive, Buffalo Grove, Ill. 60089) as the indicator, the preferred amount of ICG dye injected is 2.0 ml at an ICG dye concentration of 2.5 milligram/ml which is equivalent to an injected ICG dose of 5.0 milligrams. The chemical name for Indocyanine Green is 1H-benz(e)indolium, 2-[7-[1,3-dihydro-1,1-dimethyl-3-(4-sulfobutyl)-2H-benz[e]indo-2-ylidene]-1,3,5-heptatrienyl]-1,1-dimethyl-3-(4-sulfobutyl)-hydroxide, inner salt, sodium, or 2-[7-[1,1-dimethyl-3-(4-sulfobutyl)benz[e]indolin-2-ylidene]-1,3,5-heptatrienyl]-1,1-dimethyl-3-(4-sulfobutyl)-1H-benz[e]indolium hydroxide, inner salt, sodium salt. A typical right-to-left shunt test procedure might involve a total of 3 to 5 tests which represents a total injected dose of 15 to 25 milligrams. […]

[3] = manufacturers specified guideline; cited from earlier work

excitation wavelength ([1]; FIG. 2) | fluorescence emission wavelength ([1]; FIG. 2) | tissue thickness (depth of blood vessel beneath skin) at constant signal attenuation of about 37% ([1]; excitation and fluorescence signal, FIG. 2 curve 38) [mm] | recommended ICG dose for a human subject [2] | SMILES | recommended maximum ICG dose per day [3]
less than 500 nanometers | about 525 nm | 0.25 | – | O=C1OC2(c3ccc(O)cc3Oc3cc(O)ccc32)c2ccccc21 [fluorescein] | –
about 785 nanometers | – | – | about 127 milligrams | CC1(C)C(/C=C/C=C/C=C/C=C2\N(CCCCS(=O)(=O)O)c3ccc4ccccc4c3C2(C)C)=[N+](CCCCS(=O)(=O)[O-])c2ccc3ccccc3c21 [ICG, 1H-benz(e)indolium, 2-[7-[1,3-dihydro-1,1-dimethyl-3-(4-sulfobutyl)-2H-benz[e]indo-2-ylidene]-1,3,5-heptatrienyl]-1,1-dimethyl-3-(4-sulfobutyl)-hydroxide, inner salt, sodium] | ≤ 2 milligrams per kilogram of body weight
